In patent US9884868B2, “TGF-beta inhibitors” (Rigel Pharmaceuticals, Inc., priority 2015, dated 2018):
pIC50: −log10 of the molar value. Read-outs that look alike come from different tables or passages of the source.

Legend:
HIS-TGF-βR2 WT = HIS-TGF-βR2 WT (Homo sapiens (Human), UniProt P37173); test: HTRF probe displacement assay with HIS-TGF-βR2 WT
HIS-TGF-βR1 T204D = HIS-TGF-βR1 T204D (Homo sapiens (Human), UniProt P36897, T204D); test: HTRF probe displacement assay with HIS-TGF-βR1 T204D
[1] = read-out: TGFBr2 IC50, HTRF probe displacement, 1 nM HIS-TGF-βR2 WT, 1 hour at room temperature
[2] = read-out: TGFbr1 IC50, HTRF probe displacement, 1 nM HIS-TGF-βR1 T204D, 1 hour at room temperature

Sequence of HIS-TGF-βR1 T204D (P36897 34-503 T204D): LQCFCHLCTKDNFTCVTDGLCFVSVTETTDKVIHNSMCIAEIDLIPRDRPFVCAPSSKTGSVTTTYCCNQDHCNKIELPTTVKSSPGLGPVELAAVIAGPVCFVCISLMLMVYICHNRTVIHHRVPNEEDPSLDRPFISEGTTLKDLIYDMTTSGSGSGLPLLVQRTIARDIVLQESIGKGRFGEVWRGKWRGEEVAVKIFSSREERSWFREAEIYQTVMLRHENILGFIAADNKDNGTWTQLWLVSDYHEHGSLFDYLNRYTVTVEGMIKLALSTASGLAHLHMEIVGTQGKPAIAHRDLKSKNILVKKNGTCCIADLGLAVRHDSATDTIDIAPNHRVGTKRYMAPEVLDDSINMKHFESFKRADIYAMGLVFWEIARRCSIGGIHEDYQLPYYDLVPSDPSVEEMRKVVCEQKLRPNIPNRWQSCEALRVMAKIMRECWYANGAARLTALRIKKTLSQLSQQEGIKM
Sequence of HIS-TGF-βR2 WT (P37173 23-567): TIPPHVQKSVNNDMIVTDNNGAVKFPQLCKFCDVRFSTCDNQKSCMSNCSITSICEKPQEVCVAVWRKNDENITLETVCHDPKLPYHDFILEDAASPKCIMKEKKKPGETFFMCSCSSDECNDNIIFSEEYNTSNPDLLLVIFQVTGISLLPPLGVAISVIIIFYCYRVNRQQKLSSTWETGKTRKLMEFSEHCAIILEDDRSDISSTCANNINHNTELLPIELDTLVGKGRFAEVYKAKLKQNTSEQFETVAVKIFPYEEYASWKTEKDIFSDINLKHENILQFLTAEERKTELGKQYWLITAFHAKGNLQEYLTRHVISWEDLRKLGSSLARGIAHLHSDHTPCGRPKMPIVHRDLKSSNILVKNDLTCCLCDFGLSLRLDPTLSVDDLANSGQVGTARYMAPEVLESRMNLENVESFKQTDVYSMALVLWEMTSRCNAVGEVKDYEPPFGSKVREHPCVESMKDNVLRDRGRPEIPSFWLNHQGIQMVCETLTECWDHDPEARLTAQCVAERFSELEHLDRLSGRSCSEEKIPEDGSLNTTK

SMILES | pIC50 (HIS-TGF-βR2 WT) | pIC50 (HIS-TGF-βR1 T204D) | pIC50 (HIS-TGF-βR2 WT; [1]) | pIC50 (HIS-TGF-βR1 T204D; [2])
COCC(C1CC1)n1cnc(-c2ccc(F)cc2)c1-c1ccc2ncc(C#N)n2n1 (centres unmarked) [16′, 6-(1-(1-cyclopropyl-2-methoxyethyl)-4-(4-fluorophenyl)-1H-imidazol-5-yl)imidazo[1,2-b]pyridazine-3-carbonitrile] | < 4.82 | 8.64 | – | –
N#Cc1cnc2ccc(-c3c(-c4ccc(F)cc4)ncn3C3CCCCC3O)nn12 (centres unmarked) [17′, 6-(4-(4-fluorophenyl)-1-(2-hydroxycyclohexyl)-1H-imidazol-5-yl)imidazo[1,2-b]pyridazine-3-carbonitrile] | – | – | < 4.82 | 8.46
N#Cc1cnc2ccc(-c3c(-c4ccc(F)cc4)ncn3[C@@H](CO)CC(F)(F)F)nn12 [28′, (R)-6-(4-(4-fluorophenyl)-1-(4,4,4-trifluoro-1-hydroxybutan-2-yl)-1H-imidazol-5-yl)imidazo[1,2-b]pyridazine-3-carbonitrile] | – | – | < 4.82 | 9.00
N#Cc1cnc2ccc(-c3c(-c4ccc(F)cc4)ncn3[C@H](CO)CC(F)(F)F)nn12 [29′, (S)-6-(4-(4-fluorophenyl)-1-(4,4,4-trifluoro-1-hydroxybutan-2-yl)-1H-imidazol-5-yl)imidazo[1,2-b]pyridazine-3-carbonitrile] | – | – | < 4.82 | 8.19
N#Cc1cnc2ccc(-c3c(-c4ccc(F)c(Cl)c4)ncn3C3CCOCC3)nn12 [48′, 6-(4-(3-chloro-4-fluorophenyl)-1-(tetrahydro-2H-pyran-4-yl)-1H-imidazol-5-yl)imidazo[1,2-b]pyridazine-3-carbonitrile] | – | – | < 4.82 | 8.51
N#Cc1cnc2ccc(-c3c(-c4ccc(F)c(Cl)c4)ncn3CC(O)C(F)(F)F)nn12 (centres unmarked) [55′, 6-(4-(3-chloro-4-fluorophenyl)-1-(3,3,3-trifluoro-2-hydroxypropyl)-1H-imidazol-5-yl)imidazo[1,2-b]pyridazine-3-carbonitrile] | < 4.82 | 8.17 | – | –
N#Cc1cnc2ccc(-c3c(-c4ccc(F)cc4)ncn3CC(O)C(F)(F)F)cn12 (centres unmarked) [93′, 6-(4-(4-fluorophenyl)-1-(3,3,3-trifluoro-2-hydroxypropyl)-1H-imidazol-5-yl)imidazo[1,2-a]pyridine-3-carbonitrile] | < 4.82 | 6.24 | – | –
N#Cc1cnc2ccc(-c3c(-c4ccc(F)c(Cl)c4)ncn3CCN3CCOCC3)cn12 [95′, 6-(4-(3-chloro-4-fluorophenyl)-1-(2-morpholinoethyl)-1H-imidazol-5-yl)imidazo[1,2-c]pyridine-3-carbonitrile] | – | – | < 4.82 | 7.11
N#Cc1cnc2ccc(-c3c(-c4ccc(F)c(Cl)c4)ncn3C3CC(F)(F)C3)cn12 [99′, 6-(4-(3-chloro-4-fluorophenyl)-1-(3,3-difluorocyclobutyl)-1H-imidazol-5-yl)imidazo[1,2-a]pyridine-3-carbonitrile] | – | – | < 4.82 | 7.18
NC(=O)c1cnc2ccc(-c3c(-c4ccc(F)cc4)ncn3C3CCC(F)(F)C3)nn12 (centres unmarked) [108′, 6-(1-(3,3-difluorocyclopentyl)-4-(4-fluorophenyl)-1H-imidazol-5-yl)imidazo[1,2-b]pyridazine-3-carboxamide] | – | – | < 4.82 | 8.68
NC(=O)c1cnc2ccc(-c3c(-c4ccc(F)cc4)ncn3C3CCC(F)(F)CC3)nn12 [110′, 6-(1-(4,4-difluorocyclohexyl)-4-(4-fluorophenyl)-1H-imidazol-5-yl)imidazo[1,2-b]pyridazine-3-carboxamide] | – | – | < 4.82 | 7.69
NC(=O)c1cnc2ccc(-c3c(-c4ccc(F)c(Cl)c4)ncn3CCC(F)(F)F)nn12 [115′, 6-(4-(3-chloro-4-fluorophenyl)-1-(3,3,3-trifluoropropyl)-1H-imidazol-5-yl)imidazo[1,2-b]pyridazine-3-carboxamide] | < 4.82 | 8.34 | – | –
NC(=O)c1cnc2ccc(-c3c(-c4ccc(F)c(Cl)c4)ncn3C3CC(F)(F)C3)nn12 [118′, 6-(4-(3-chloro-4-fluorophenyl)-1-(3,3-difluorocyclobutyl)-1H-imidazol-5-yl)imidazo[1,2-b]pyridazine-3-carboxamide] | – | – | < 4.82 | 8.85
NC(=O)c1cnc2ccc(-c3c(-c4ccc(F)c(Cl)c4)ncn3CCN3CCOCC3)cn12 [120′, 6-(4-(3-chloro-4-fluorophenyl)-1-(2-morpholinoethyl)-1H-imidazol-5-yl)imidazo[1,2-a]pyridine-3-carboxamide] | – | – | < 4.82 | 8.19
NC(=O)c1cnc2ccc(-c3c(-c4ccc(F)c(Cl)c4)ncn3C3CC(F)(F)C3)cn12 [121′, 6-(4-(3-chloro-4-fluorophenyl)-1-(3,3-difluorocyclobutyl)-1H-imidazol-5-yl)imidazo[1,2-a]pyridine-3-carboxamide] | – | – | < 4.82 | 8.96
NC(=O)c1cnc2ccc(-c3c(-c4ccc(F)c(Cl)c4)ncn3C(CO)CO)cn12 [122′, 6-(4-(3-chloro-4-fluorophenyl)-1-(1,3-dihydroxypropan-2-yl)-1H-imidazol-5-yl)imidazo[1,2-a]pyridine-3-carboxamide] | – | – | < 4.82 | 8.74

SMILES | pIC50 (HIS-TGF-βR2 WT) | pIC50 (HIS-TGF-βR1 T204D) | pIC50 (HIS-TGF-βR2 WT; [1]) | pIC50 (HIS-TGF-βR1 T204D; [2])
COCC(C1CC1)n1cnc(-c2ccc(F)cc2)c1-c1ccc2ncc(C(N)=O)n2n1 (centres unmarked) [130′, 6-(1-(1-cyclopropyl-2-methoxyethyl)-4-(4-fluorophenyl)-1H-imidazol-5-yl)imidazo[1,2-b]pyridazine-3-carboxamide] | – | – | < 4.82 | 8.68
CC(C)(O)CCn1cnc(-c2ccc(F)cc2)c1-c1ccc2ncc(C(N)=O)n2n1 [131′, 6-(4-(4-fluorophenyl)-1-(3-hydroxy-3-methylbutyl)-1H-imidazol-5-yl)imidazo[1,2-b]pyridazine-3-carboxamide] | – | – | < 4.82 | 7.55
CC(C)(O)CCn1cnc(-c2ccc(F)c(Cl)c2)c1-c1ccc2ncc(C(N)=O)n2n1 [139′, 6-(4-(3-chloro-4-fluorophenyl)-1-(3-hydroxy-3-methylbutyl)-1H-imidazol-5-yl)imidazo[1,2-b]pyridazine-3-carboxamide] | – | – | < 4.82 | 8.28
NC(=O)c1cnc2ccc(-c3c(-c4ccc(F)c(Cl)c4)ncn3CCN3CCCC3)nn12 [143′, 6-(4-(3-chloro-4-fluorophenyl)-1-(2-(pyrrolidin-1-yl)ethyl)-1H-imidazol-5-yl)imidazo[1,2-b]pyridazine-3-carboxamide] | – | – | < 4.82 | 8.04
NC(=O)c1cnc2ccc(-c3c(-c4ccc(F)c(Cl)c4)ncn3C3CCOCC3)nn12 [144′, 6-(4-(3-chloro-4-fluorophenyl)-1-(tetrahydro-2H-pyran-4-yl)-1H-imidazol-5-yl)imidazo[1,2-b]pyridazine-3-carboxamide] | – | – | < 4.82 | 8.39
CN(C)CCCn1cnc(-c2ccc(F)cc2)c1-c1ccc2ncc(C(N)=O)n2c1 [163′, 6-(1-(3-(dimethylamino)propyl)-4-(4-fluorophenyl)-1H-imidazol-5-yl)imidazo[1,2-a]pyridine-3-carboxamide] | – | – | < 4.82 | 7.50
NC(=O)c1cnc2ccc(-c3c(-c4ccc(F)cc4)ncn3CC(O)C(F)(F)F)cn12 (centres unmarked) [169′, 6-(4-(4-fluorophenyl)-1-(3,3,3-trifluoro-2-hydroxypropyl)-1H-imidazol-5-yl)imidazo[1,2-a]pyridine-3-carboxamide] | – | – | < 4.82 | 7.67
NC(=O)c1cnc2ccc(-c3c(-c4ccc(F)cc4)ncn3C3CC(F)(F)C3)cn12 [180′, 6-(1-(3,3-difluorocyclobutyl)-4-(4-fluorophenyl)-1H-imidazol-5-yl)imidazo[1,2-a]pyridine-3-carboxamide] | – | – | < 4.82 | 8.43
CC(C)(C)OC(=O)N1CC(n2cnc(-c3ccc(F)cc3)c2-c2ccc3ncc(C(N)=O)n3n2)C1 [195A′, tert-butyl 3-(5-(3-carbamoylimidazo[1,2-b]pyridazin-6-yl)-4-(4-fluorophenyl)-1H-imidazol-1-yl)azetidine-1-carboxylate] | – | – | < 4.82 | 6.61
CN(C)C(=O)c1cnc2ccc(-c3c(-c4ccc(F)cc4)ncn3CC(F)F)nn12 [207′, 6-(1-(2,2-difluoroethyl)-4-(4-fluorophenyl)-1H-imidazol-5-yl)-N,N-dimethylimidazo[1,2-b]pyridazine-3-carboxamide] | – | – | < 4.82 | 8.52
O=C(NC1CC1)c1cnc2ccc(-c3c(-c4ccc(F)cc4)ncn3CC(F)F)nn12 [208′, N-cyclopropyl-6-(1-(2,2-difluoroethyl)-4-(4-fluorophenyl)-1H-imidazol-5-yl)imidazo[1,2-b]pyridazine-3-carboxamide] | – | – | < 4.82 | 8.92
NC(=O)c1cnc2ccc(-c3c(-c4cc(Cl)c(F)cc4F)ncn3CC(F)F)cn12 [235′, 6-(4-(5-chloro-2,4-difluorophenyl)-1-(2,2-difluoroethyl)-1H-imidazol-5-yl)imidazo[1,2-a]pyridine-3-carboxamide] | – | – | < 4.82 | 9.00
CS(=O)(=O)Nc1ccccc1-c1ncn(CC(F)F)c1-c1ccc2ncc(C#N)n2n1 [239′, N-(2-(5-(3-cyanoimidazo[1,2-b]pyridazin-6-yl)-1-(2,2-difluoroethyl)-1H-imidazol-4-yl)phenyl)methanesulfonamide] | – | – | < 4.82 | 6.28
N#Cc1cnc2ccc(-c3c(-c4cccc(C(F)(F)F)c4)ncn3CC(F)F)nn12 [243′, 6-(1-(2,2-difluoroethyl)-4-(3-(trifluoromethyl)phenyl)-1H-imidazol-5-yl)imidazo[1,2-b]pyridazine-3-carbonitrile] | – | – | < 4.82 | 8.74
N#Cc1cnc2ccc(-c3c(-c4ccc(C(F)(F)F)cc4)ncn3CC(F)F)nn12 [244′, 6-(1-(2,2-difluoroethyl)-4-(4-(trifluoromethyl)phenyl)-1H-imidazol-5-yl)imidazo[1,2-b]pyridazine-3-carbonitrile] | – | – | < 4.82 | 6.26
